Reference: ChEMBL document CHEMBL1138676, “Liver-selective glucocorticoid antagonists: a novel treatment for type 2 diabetes” (J Med Chem, 2004)

Assays:
Glucocorticoid receptor [1] = biological target: T1, Glucocorticoid receptor (Homo sapiens, UniProt P04150); experiment: Inhibition of human glucocorticoid receptor
T1 sequence (P04150 whole entry): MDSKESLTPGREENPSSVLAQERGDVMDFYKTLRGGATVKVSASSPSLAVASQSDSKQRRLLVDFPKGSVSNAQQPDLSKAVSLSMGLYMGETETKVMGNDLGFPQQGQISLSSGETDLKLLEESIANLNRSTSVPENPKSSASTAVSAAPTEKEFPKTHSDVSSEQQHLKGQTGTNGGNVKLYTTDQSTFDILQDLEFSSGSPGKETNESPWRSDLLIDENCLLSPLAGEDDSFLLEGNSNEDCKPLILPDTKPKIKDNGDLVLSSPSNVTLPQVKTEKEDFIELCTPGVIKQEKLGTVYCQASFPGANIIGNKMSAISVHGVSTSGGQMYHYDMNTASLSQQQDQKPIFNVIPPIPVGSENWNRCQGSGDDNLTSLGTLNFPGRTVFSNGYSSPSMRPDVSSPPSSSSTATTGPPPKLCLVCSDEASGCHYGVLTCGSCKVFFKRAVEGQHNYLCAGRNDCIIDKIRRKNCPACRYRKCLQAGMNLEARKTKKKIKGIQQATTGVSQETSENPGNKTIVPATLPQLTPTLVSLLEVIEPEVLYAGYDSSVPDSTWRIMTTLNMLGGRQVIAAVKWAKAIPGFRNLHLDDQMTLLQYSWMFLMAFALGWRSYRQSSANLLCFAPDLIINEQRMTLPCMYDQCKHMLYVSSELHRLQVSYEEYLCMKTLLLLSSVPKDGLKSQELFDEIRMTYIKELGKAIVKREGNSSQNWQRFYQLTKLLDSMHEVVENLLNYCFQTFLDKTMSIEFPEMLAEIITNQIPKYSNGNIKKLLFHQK

[2] = biological target: Glucocorticoid receptor (Rattus norvegicus) (UniProt P06536); experiment: Inhibition of glucocorticoid receptor mediated tyrosine amino transferase activity
Glucocorticoid receptor [3] = biological target: T1, Glucocorticoid receptor; experiment: Inhibition of glucocorticoid receptor dependent alkaline phosphatase activity; format: functional
[4] = biological target: Glucocorticoid receptor (Rattus norvegicus) (UniProt P06536); experiment: Inhibition of glucocorticoid receptor mediated tyrosine aminotransferase activity; parameters: concentration or dose not given beside the values; settings: concentration not given here
[5] = Inhibitory activity against rat lymphocytes; parameters: concentration or dose not given beside the values
Progesterone receptor = biological target: T2, Progesterone receptor (Homo sapiens, UniProt P06401); experiment: Inhibition of human progesterone receptor
T2 sequence (P06401 whole entry): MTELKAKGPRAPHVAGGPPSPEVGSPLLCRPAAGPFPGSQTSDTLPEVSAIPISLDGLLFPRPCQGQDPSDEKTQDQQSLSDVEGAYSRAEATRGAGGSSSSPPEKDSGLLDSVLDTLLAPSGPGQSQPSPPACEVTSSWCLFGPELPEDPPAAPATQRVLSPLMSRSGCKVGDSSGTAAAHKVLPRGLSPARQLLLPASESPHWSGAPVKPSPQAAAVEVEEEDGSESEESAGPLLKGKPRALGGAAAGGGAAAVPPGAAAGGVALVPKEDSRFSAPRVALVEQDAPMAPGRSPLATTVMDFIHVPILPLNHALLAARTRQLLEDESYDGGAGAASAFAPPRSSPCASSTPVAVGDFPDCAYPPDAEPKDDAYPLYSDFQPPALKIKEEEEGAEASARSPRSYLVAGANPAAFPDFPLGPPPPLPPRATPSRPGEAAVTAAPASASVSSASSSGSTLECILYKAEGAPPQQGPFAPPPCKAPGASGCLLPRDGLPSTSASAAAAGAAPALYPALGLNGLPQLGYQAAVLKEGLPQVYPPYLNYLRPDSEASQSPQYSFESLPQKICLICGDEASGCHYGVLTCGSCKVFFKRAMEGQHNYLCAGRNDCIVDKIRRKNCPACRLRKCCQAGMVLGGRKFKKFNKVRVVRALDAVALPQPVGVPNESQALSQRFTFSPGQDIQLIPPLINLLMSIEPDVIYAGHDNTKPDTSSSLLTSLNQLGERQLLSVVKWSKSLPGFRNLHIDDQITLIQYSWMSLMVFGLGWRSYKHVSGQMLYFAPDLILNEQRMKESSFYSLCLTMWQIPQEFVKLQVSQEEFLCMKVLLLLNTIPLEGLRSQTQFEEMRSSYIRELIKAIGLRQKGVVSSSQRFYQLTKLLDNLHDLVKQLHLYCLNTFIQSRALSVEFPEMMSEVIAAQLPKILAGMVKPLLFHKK

Androgen receptor = biological target: T3, Androgen receptor (Homo sapiens, UniProt P10275)
T3 sequence (P10275 whole entry): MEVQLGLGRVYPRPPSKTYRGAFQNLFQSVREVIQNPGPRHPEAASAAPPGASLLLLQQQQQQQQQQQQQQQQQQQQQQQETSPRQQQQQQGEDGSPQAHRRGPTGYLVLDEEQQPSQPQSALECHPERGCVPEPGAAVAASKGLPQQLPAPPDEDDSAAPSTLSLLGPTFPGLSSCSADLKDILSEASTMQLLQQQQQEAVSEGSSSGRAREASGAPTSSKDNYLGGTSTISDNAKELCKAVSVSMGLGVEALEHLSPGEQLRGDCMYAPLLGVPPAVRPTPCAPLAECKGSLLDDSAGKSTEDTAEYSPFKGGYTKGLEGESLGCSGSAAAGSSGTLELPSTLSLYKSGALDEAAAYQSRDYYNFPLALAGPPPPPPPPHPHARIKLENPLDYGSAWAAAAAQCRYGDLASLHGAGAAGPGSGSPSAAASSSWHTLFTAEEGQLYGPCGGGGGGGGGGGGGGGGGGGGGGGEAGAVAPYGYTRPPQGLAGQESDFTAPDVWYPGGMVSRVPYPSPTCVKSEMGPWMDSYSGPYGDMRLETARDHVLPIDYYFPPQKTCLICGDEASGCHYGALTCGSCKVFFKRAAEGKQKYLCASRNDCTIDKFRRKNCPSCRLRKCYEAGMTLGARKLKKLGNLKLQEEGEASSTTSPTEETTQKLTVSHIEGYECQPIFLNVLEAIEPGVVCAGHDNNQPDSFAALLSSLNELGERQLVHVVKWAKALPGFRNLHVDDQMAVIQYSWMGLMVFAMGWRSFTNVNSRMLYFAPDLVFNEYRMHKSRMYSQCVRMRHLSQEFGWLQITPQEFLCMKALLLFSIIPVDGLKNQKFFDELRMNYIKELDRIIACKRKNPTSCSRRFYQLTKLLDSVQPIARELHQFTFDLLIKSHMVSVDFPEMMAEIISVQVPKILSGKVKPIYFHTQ
Description: Inhibition of human androgen receptor

[6] = biological target: T4, Mineralocorticoid receptor (Homo sapiens, UniProt P08235)
T4 sequence (P08235 whole entry): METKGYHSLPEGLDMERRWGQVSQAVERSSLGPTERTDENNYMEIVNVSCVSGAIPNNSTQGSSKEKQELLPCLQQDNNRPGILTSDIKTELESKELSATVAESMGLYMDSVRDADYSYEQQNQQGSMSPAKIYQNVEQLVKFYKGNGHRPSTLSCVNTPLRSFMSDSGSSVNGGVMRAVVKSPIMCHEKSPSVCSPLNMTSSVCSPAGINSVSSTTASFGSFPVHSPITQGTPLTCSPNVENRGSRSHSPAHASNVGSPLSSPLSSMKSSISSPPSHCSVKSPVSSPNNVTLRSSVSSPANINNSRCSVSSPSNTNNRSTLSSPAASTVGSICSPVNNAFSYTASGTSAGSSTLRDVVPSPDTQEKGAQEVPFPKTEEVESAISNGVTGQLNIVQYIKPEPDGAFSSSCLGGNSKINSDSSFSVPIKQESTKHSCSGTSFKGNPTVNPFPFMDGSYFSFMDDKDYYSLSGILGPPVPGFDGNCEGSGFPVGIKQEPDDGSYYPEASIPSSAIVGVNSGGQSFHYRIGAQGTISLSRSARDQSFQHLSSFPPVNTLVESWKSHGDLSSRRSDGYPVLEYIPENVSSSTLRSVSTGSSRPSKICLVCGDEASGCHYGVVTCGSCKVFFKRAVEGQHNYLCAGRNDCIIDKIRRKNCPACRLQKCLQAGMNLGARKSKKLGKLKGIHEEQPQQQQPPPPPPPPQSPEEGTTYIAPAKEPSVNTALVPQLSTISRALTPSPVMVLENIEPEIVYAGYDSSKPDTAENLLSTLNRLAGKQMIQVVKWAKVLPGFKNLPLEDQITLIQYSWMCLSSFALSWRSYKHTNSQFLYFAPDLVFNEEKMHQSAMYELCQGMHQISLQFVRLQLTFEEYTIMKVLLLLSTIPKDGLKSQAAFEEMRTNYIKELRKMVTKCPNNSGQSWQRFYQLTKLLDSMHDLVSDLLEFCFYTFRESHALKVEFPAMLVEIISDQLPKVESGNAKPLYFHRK
Description: Inhibition of human Mineralocorticoid receptor

Glucocorticoid receptor (Rattus norvegicus), sequence (P06536 whole entry, looked up): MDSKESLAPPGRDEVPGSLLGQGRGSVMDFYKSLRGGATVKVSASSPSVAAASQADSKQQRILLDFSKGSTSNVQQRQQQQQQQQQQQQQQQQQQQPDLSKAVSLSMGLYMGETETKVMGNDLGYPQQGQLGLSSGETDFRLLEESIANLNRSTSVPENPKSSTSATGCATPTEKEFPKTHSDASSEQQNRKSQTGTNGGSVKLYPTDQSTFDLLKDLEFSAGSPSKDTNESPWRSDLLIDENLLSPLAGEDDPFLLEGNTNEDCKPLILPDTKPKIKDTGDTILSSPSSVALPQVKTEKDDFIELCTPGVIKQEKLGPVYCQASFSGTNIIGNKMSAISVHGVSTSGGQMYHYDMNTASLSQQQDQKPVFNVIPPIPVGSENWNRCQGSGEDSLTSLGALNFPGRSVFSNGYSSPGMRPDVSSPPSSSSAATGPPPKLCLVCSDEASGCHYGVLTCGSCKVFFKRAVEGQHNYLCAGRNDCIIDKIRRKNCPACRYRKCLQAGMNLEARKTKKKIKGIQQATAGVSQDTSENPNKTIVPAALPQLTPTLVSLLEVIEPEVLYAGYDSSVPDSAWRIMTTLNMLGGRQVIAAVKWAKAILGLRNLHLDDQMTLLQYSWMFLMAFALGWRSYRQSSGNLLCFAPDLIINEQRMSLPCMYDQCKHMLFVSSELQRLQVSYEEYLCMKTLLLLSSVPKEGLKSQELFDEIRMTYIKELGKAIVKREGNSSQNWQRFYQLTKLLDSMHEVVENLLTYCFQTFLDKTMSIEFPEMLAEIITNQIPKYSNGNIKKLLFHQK

SMILES | Ki (Glucocorticoid receptor [1]) | Ki [2] | Ki (Glucocorticoid receptor [3]) | inhibition [4] | Ki (Progesterone receptor) | Ki (Androgen receptor) | Ki [6] | Inhibition [5]
C#C[C@]1(O)CC[C@H]2[C@@H]3CCC4=CC(=O)CCC4=C3[C@@H](c3ccc(N(C)C(=O)CNC(=O)O[C@H]4C[C@H]5[C@@H]([C@H](O)C[C@@H]6C[C@H](O)CC[C@@]65C)[C@@H]5CC[C@H]([C@H](C)CCC(=O)O)[C@@]45C)cc3)C[C@@]21C | 6.5 nM | 500 nM | 100 nM |  |  |  |  | 
CC#C[C@]1(O)CC[C@H]2[C@@H]3CCC4=CC(=O)CCC4=C3[C@@H](c3ccc(N(C)CCO[C@H]4CC[C@@]5(C)[C@@H](C4)C[C@@H](O)[C@@H]4[C@@H]5C[C@H](O)[C@]5(C)[C@@H]([C@H](C)CCC(=O)NCCS(=O)(=O)O)CC[C@@H]45)cc3)C[C@@]21C |  |  |  |  |  |  |  | -6%
C#C[C@]1(O)CC[C@H]2[C@@H]3CCC4=CC(=O)CCC4=C3[C@@H](c3ccc(N(C)CCC[C@@]4(O)CC[C@@]5(C)[C@H](C[C@@H](O)[C@@H]6[C@@H]5C[C@H](O)[C@]5(C)[C@@H]([C@H](C)CCC(=O)O)CC[C@@H]65)C4)cc3)C[C@@]21C | 0.11 nM |  | 4.3 nM | 6% |  |  |  | 0%
CC#C[C@]1(O)CC[C@H]2[C@@H]3CCC4=CC(=O)CC[C@]4(Cc4ccc(CCCO[C@H]5CC[C@@]6(C)[C@@H](C5)C[C@@H](O)[C@@H]5[C@@H]6C[C@H](O)[C@]6(C)[C@@H]([C@H](C)CCC(=O)O)CC[C@@H]56)cc4)C3=CC[C@@]21C |  |  |  | 5% |  |  |  | -16%
C#C[C@]1(O)CC[C@H]2[C@@H]3CCC4=CC(=O)CCC4=C3[C@@H](c3ccc(N(C)CCNC(=O)O[C@@H]4C[C@@H]5CC(O)CC[C@]5(C)[C@H]5C[C@H](O)[C@]6(C)[C@@H]([C@H](C)CCC(=O)O)CC[C@H]6[C@H]45)cc3)C[C@@]21C (stereo partly drawn) | 1.2 nM | 730 nM | 37 nM |  | 4.6 nM | 18 nM |  | 
C#C[C@]1(O)CC[C@H]2[C@@H]3CCC4=CC(=O)CCC4=C3[C@@H](c3ccc(N(C)CCOCCO[C@@H]4CC[C@@]5(C)[C@@H](C4)C[C@@H](O)[C@@H]4[C@@H]5C[C@H](O)[C@]5(C)[C@@H]([C@H](C)CCC(=O)O)CC[C@@H]45)cc3)C[C@@]21C | 0.21 nM | 90 nM | 12 nM | 66% | 1.7 nM | 4.8 nM | 170 nM | -2%

Continued, in another order:

Ki (Glucocorticoid receptor [1]) | Ki [2] | Ki (Glucocorticoid receptor [3]) | inhibition [4] | Ki (Progesterone receptor) | Ki (Androgen receptor) | Ki [6] | SMILES | Inhibition [5]
 |  |  | 49% |  |  |  | C#C[C@]1(O)CC[C@H]2[C@@H]3CCC4=CC(=O)CCC4=C3[C@@H](c3ccc(N(C)CCOC4CC[C@@]5(C)[C@@H](C4)C[C@@H](O)[C@@H]4[C@@H]5C[C@H](O)[C@]5(C)[C@@H]([C@H](C)CCC(=O)O)CC[C@@H]45)cc3)C[C@@]21C (stereo in doubt; form 1) | 
 |  |  | 72% |  |  |  | C#C[C@]1(O)CC[C@H]2[C@@H]3CCC4=CC(=O)CCC4=C3[C@@H](c3ccc(N(C)CCOC4CC[C@@]5(C)[C@@H](C4)C[C@@H](O)[C@@H]4[C@@H]5C[C@H](O)[C@]5(C)[C@@H]([C@H](C)CCC(=O)O)CC[C@@H]45)cc3)C[C@@]21C (stereo in doubt; form 2) | 
0.22 nM |  | 2.7 nM |  |  |  |  | C#C[C@]1(O)CC[C@H]2[C@@H]3CCC4=CC(=O)CCC4=C3[C@@H](c3ccc(N(C)CCOC4CC[C@@]5(C)[C@H](CC[C@@H]6[C@@H]5CC[C@]5(C)[C@@H]([C@H](C)CCC(=O)O)CC[C@@H]65)C4)cc3)C[C@@]21C (stereo partly drawn) | 
0.16 nM |  | 0.38 nM | 69% |  |  |  | C#C[C@]1(O)CC[C@H]2[C@@H]3CCC4=CC(=O)CCC4=C3[C@@H](c3ccc(N(C)CCOC4CC[C@@]5(C)[C@H](CC[C@@H]6[C@@H]5C[C@H](O)[C@]5(C)[C@@H]([C@H](C)CCC(=O)O)CC[C@@H]65)C4)cc3)C[C@@]21C (stereo partly drawn) | 22%
0.18 nM |  | 0.76 nM |  |  |  |  | C#C[C@]1(O)CC[C@H]2[C@@H]3CCC4=CC(=O)CCC4=C3[C@@H](c3ccc(N(C)CCOC4CC[C@@]5(C)[C@@H](C4)C[C@@H](O)[C@@H]4[C@@H]5CC[C@]5(C)[C@@H]([C@H](C)CCC(=O)O)CC[C@@H]45)cc3)C[C@@]21C (stereo partly drawn) | 
